In patent US7601686B2, “Hepatitis C virus inhibitors” (Bristol-Myers Squibb Company, priority 2005, dated 2009):
Read-outs that look alike come from different tables or passages of the source.

What was measured:
[1] = tested on: HCV replicon in HUH-7 cells; test: HCV replicon FRET assay; type: cell-based, Hepatitis C virus (strain 1b); conditions: HCV replicon cell assay, HUH-7, read-out: EC50 Range
Source text: Generation of HCV Replicon
An HCV replicon whole cell system was established as described by Lohmann V, Korner F, Koch J, Herian U, Theilmann L, Bartenschlager R., Science 285(5424):110-3 (1999). This system enabled us to evaluate the effects of our HCV Protease compounds on HCV RNA replication. Briefly, using the HCV strain 1b sequence described in the Lohmann paper (Assession number:AJ238799), an HCV cDNA was synthesized by Operon Technologies, Inc. (Alameda, Calif.), and the full-length replicon was then assembled in plasmid pGem9zf(+) (Promega, Madison, Wis.) using standard molecular biology techniques. The replicon consists of (i) the HCV 5′ UTR fused to the first 12 amino acids of the capsid protein, (ii) the neomycin phosphotransferase gene (neo), (iii) the IRES from encephalomyocarditis virus (EMCV), and (iv) HCV NS3 to NS5B genes and the HCV 3′ UTR. Plasmid DNAs were linearized with ScaI and RNA transcripts were synthesized in vitro using the T7 MegaScript transcription kit (Ambion, Austin, Tex.) according to manufacturer's directions. In vitro transcripts of the cDNA were transfected into the human hepatoma cell line, HUH-7. […] Resulting cell lines were characterized for positive and negative strand RNA production and protein production over time.
The HCV replicon FRET assay was developed to monitor the inhibitory effects of compounds described in the disclosure on HCV viral replication. HUH-7 cells, constitutively expressing the HCV replicon, were grown in Dulbecco's Modified Eagle Media (DMEM) (Gibco-BRL) containing 10% Fetal calf serum (FCS) (Sigma) and 1 mg/mL G418 (Gibco-BRL). Cells were seeded the night before (1.5×10^4 cells/well) in 96-well tissue-culture sterile plates. Compound and no compound controls were prepared in DMEM containing 4% FCS, 1:100 Penicillin/Streptomysin (Gibco-BRL), 1:100 L-glutamine and 5% DMSO in the dilution plate (0.5% DMSO final concentration in the assay). Compound/DMSO mixes were added to the cells and incubated for 4 days at 37° C. After 4 days, cells were first assessed for cytotoxicity using alamar Blue (Trek Diagnotstic Systems) for a CC50 reading. The toxicity of compound (CC50) was determined by adding 1/10th volume of alamar Blue to the media incubating the cells. After 4 h, the fluorescence signal from each well was read, with an excitation wavelength at 530 nm and an emission wavelength of 580 nm, using the Cytofluor Series 4000 (Perspective Biosystems). Plates were then rinsed thoroughly with Phosphate-Buffered Saline (PBS) (3 times 150 μl).

[2] = biological target: T1, HCV NS3/4A protease complex, BMS strain (UniProt P27958, species not given/STRAIN_BMS); test: FRET peptide assay to monitor HCV NS3/4A proteolytic activity (BMS strain); type: biochemical, Hepatitis C virus (genotype 1a)
T1 construct: DNA encoding the recombinant HCV NS3/4A protease complex (amino acids 1027 to 1711) for these strains [H77 and J4L6S]; fused on or other part: For the H77 and J4L6S constructs, a three-lysine solubilising tail at the NS4A C-terminus and a Ni-NTA-purifiable tag from pET21b
T1 sequence (P27958 1027-1657, stated change not applied, one chain of several): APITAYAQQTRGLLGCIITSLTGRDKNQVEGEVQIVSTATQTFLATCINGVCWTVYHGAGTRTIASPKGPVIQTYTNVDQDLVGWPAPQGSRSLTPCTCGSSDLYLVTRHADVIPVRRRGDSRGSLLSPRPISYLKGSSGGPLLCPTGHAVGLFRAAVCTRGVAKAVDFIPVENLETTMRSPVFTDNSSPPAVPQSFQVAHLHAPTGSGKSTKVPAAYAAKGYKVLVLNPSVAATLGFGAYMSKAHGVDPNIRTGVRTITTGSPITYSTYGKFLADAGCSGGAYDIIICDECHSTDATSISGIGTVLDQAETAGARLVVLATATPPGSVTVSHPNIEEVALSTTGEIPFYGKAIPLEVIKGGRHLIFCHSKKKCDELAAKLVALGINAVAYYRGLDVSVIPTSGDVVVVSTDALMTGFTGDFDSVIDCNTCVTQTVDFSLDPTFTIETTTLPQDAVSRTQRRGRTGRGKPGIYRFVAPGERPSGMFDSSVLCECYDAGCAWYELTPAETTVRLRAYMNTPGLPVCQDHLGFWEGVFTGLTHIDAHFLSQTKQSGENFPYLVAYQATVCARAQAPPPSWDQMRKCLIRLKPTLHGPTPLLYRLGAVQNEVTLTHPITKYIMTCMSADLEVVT
Source text: Generation of Recombinant HCV NS3/4A Protease Complex
HCV NS3 protease complexes, derived from the BMS strain, H77 strain or J4L6S strain, were generated, as described below. These purified recombinant proteins were generated for use in a homogeneous assay (see below) to provide an indication of how effective compounds of the present disclosure would be in inhibiting HCV NS3 proteolytic activity.
Serum from an HCV-infected patient was obtained from Dr. T. Wright, San Francisco Hospital. An engineered full-length cDNA (compliment deoxyribonucleic acid) template of the HCV genome (BMS strain) was constructed from DNA fragments obtained by reverse transcription-PCR (RT-PCR) of serum RNA (ribonucleic acid) and using primers selected on the basis of homology between other genotype 1a strains. From the determination of the entire genome sequence, a genotype 1a was assigned to the HCV isolate according to the classification of Simmonds et al. (See P Simmonds, K A Rose, S Graham, S W Chan, F McOmish, B C Dow, E A Follett, P L Yap and H Marsden, J. Clin. Microbiol., 31(6), 1493-1503 (1993)). […] The infectious clones, H77 (1a genotype) and J4L6S (1b genotype) were obtained from R. Purcell (NIH) and the sequences are published in Genbank (AAB67036, see Yanagi, M., Purcell, R. H., Emerson, S. U. and Bukh, J. Proc. Natl. Acad. Sci. U.S.A. 94(16), 8738-8743 (1997); AF054247, see Yanagi, M., St Claire, M., Shapiro, M., Emerson, S. U., Purcell, R. H. and Bukh, J, Virology 244 (1), 161-172. (1998)).
The H77 and J4L6S strains were used for production of recombinant NS3/4A protease complexes. DNA encoding the recombinant HCV NS3/4A protease complex (amino acids 1027 to 1711) for these strains were manipulated as described by P. Gallinari et al. (see Gallinari P, Paolini C, Brennan D, Nardi C, Steinkuhler C, De Francesco R. Biochemistry. 38(17):5620-32, (1999)). Briefly, a three-lysine solubilizing tail was added at the 3′-end of the NS4A coding region. The cysteine in the P1 position of the NS4A-NS4B cleavage site (amino acid 1711) was changed to a glycine to avoid the proteolytic cleavage of the lysine tag. Furthermore, a cysteine to serine mutation was introduced by PCR at amino acid position 1454 to prevent the autolytic cleavage in the NS3 helicase domain. The variant DNA fragment was cloned in the pET21b bacterial expression vector (Novagen) and the NS3/4A complex was expressed in Escherichia coli strain BL21 (DE3) (Invitrogen) following the protocol described by P. Gallinari et al. (see Gallinari P, Brennan D, Nardi C, Brunetti M, Tomei L, Steinkuhler C, De Francesco R., J. Virol. 72(8):6758-69 (1998)) with modifications. Briefly, the NS3/4A protease complex expression was induced with 0.5 millimolar (mM) Isopropyl β-D-1-thiogalactopyranoside (IPTG) for 22 hours (h) at 20° C. A typical fermentation (1 Liter (L)) yielded approximately 10 grams (g) of wet cell paste. The cells were resuspended in lysis buffer (10 mL/g) consisting of 25 mM N-(2-Hydroxyethyl)piperazine-N′-(2-Ethane Sulfonic acid) (HEPES), pH 7.5, 20% glycerol, 500 mM Sodium Chloride (NaCl), 0.5% Triton X-100, 1 microgram/milliliter (“μg/mL”) lysozyme, 5 mM Magnesium Chloride (MgCl2), 1 μg/mL DnaseI, 5 mM β-Mercaptoethanol (βME), Protease inhibitor—Ethylenediamine Tetraacetic acid (EDTA) free (Roche), homogenized and incubated for 20 minutes (min) at 4° C. The homogenate was sonicated and clarified by ultra-centrifugation at 235000 g for 1 h at 4° C. Imidazole was added to the supernatant to a final concentration of 15 mM and the pH adjusted to 8.0. The crude protein extract was loaded on a Nickel—Nitrilotriacetic acid (Ni-NTA) column pre-equilibrated with buffer B (25 mM HEPES, pH 8.0, 20% glycerol, 500 mM NaCl, 0.5% Triton X-100, 15 mM imidazole, 5 mM βME). The sample was loaded at a flow rate of 1 mL/min. The column was washed with 15 column volumes of buffer C (same as buffer B except with 0.2% Triton X-100). […]

[3] = NS3/4A BMS strain, enzyme assay; read-out: IC 50 Range
[4] = read-out: IC 50 Range; NS3/4A BMS strain, enzyme assay

Structure (SMILES) | EC50 [1] [µM] | IC50 [2, 3] [µM] | EC50 ([1]; Hepatitis C virus) [µM] | IC50 [2, 4] [µM]
C=CC1CC1(NC(=O)[C@@H]1C[C@@H](NC(=O)c2c(C)nc3ccccn23)CN1C(=O)[C@@H](NC(=O)CC1CC1)C(C)(C)C)C(=O)NS(=O)(=O)C1CC1 (stereo partly drawn) [Compound 18] | > 15 | 0.15 to 15 | – | –
C=CC1CC1(NC(=O)[C@@H]1C[C@@H](NC(=O)c2c(C)nc3sccn23)CN1C(=O)[C@@H](NC(=O)CC1CC1)C(C)(C)C)C(=O)NS(=O)(=O)C1CC1 (stereo partly drawn) [Compound 20] | – | < 0.15 | > 15 | –
C=CC1CC1(NC(=O)[C@@H]1C[C@@H](NC(=O)c2cn(CC)c3cc4c(cc3c2=O)OCO4)CN1C(=O)[C@@H](NC(=O)CC1CC1)C(C)(C)C)C(=O)NS(=O)(=O)C1CC1 (stereo partly drawn) [Compound 40] | – | – | > 15 | < 0.15
C=CC1CC1(NC(=O)[C@@H]1C[C@@H](NC(=O)c2ccncc2)CN1C(=O)[C@@H](NC(=O)CC1CC1)C(C)(C)C)C(=O)NS(=O)(=O)C1CC1 (stereo partly drawn) [Compound 14] | – | 0.15 to 15 | > 15 | –
C=CC1CC1(NC(=O)[C@@H]1C[C@@H](NC(=O)c2nccc3ccccc23)CN1C(=O)[C@@H](NC(=O)CC1CC1)C(C)(C)C)C(=O)NS(=O)(=O)C1CC1 (stereo partly drawn) [Compound 24] | – | 0.15 to 15 | > 15 | –
C=CC1CC1(NC(=O)[C@@H]1C[C@@H](NC(=O)c2cccc3ccccc23)CN1C(=O)[C@@H](NC(=O)CC1CC1)C(C)(C)C)C(=O)NS(=O)(=O)C1CC1 (stereo partly drawn) [Compound 16] | – | < 0.15 | > 15 | –
C=CC1CC1(NC(=O)[C@@H]1C[C@@H](NC(=O)c2cc3ccccc3o2)CN1C(=O)[C@@H](NC(=O)CC1CC1)C(C)(C)C)C(=O)NS(=O)(=O)C1CC1 (stereo partly drawn) [Compound 27] | – | < 0.15 | 0.15 to 15 | –
C=CC1CC1(NC(=O)[C@@H]1C[C@@H](NC(=S)NCc2ccccc2)CN1C(=O)[C@@H](NC(=O)OC(C)(C)C)C(C)(C)C)C(=O)NS(=O)(=O)C1CC1 (stereo partly drawn) [Compound 45] | – | – | > 15 | 0.15 to 15
C=CC1CC1(NC(=O)[C@@H]1C[C@@H](NC(=O)c2c(OCC)ccc3ccccc23)CN1C(=O)[C@@H](NC(=O)CC1CC1)C(C)(C)C)C(=O)NS(=O)(=O)C1CC1 (stereo partly drawn) [Compound 37] | – | 0.15 to 15 | > 15 | –
C=CC1CC1(NC(=O)[C@@H]1C[C@@H](NC(=O)c2ccccc2-c2ccccc2)CN1C(=O)[C@@H](NC(=O)CC1CC1)C(C)(C)C)C(=O)NS(=O)(=O)C1CC1 (stereo partly drawn) [Compound 38] | – | 0.15 to 15 | > 15 | –
C=CC1CC1(NC(=O)[C@@H]1C[C@@H](NC(=O)c2ccnc3ccccc23)CN1C(=O)[C@@H](NC(=O)CC1CC1)C(C)(C)C)C(=O)NS(=O)(=O)C1CC1 (stereo partly drawn) [Compound 10] | – | 0.15 to 15 | > 15 | –
C=CC1CC1(NC(=O)[C@@H]1C[C@@H](NC(=O)c2cc3ccccc3n2C)CN1C(=O)[C@@H](NC(=O)CC1CC1)C(C)(C)C)C(=O)NS(=O)(=O)C1CC1 (stereo partly drawn) [Compound 26] | – | < 0.15 | 0.15 to 15 | –
C=CC1CC1(NC(=O)[C@@H]1C[C@@H](NC(=O)c2coc3ccccc3c2=O)CN1C(=O)[C@@H](NC(=O)CC1CC1)C(C)(C)C)C(=O)NS(=O)(=O)C1CC1 (stereo partly drawn) [Compound 39] | – | < 0.15 | 0.15 to 15 | –
C=CC1CC1(NC(=O)[C@@H]1C[C@@H](NC(=O)OCC2c3ccccc3-c3ccccc32)CN1C(=O)[C@@H](NC(=O)CC1CC1)C(C)(C)C)C(=O)NS(=O)(=O)C1CC1 (stereo partly drawn) [Compound 7] | – | 0.15 to 15 | > 15 | –
C=CC1CC1(NC(=O)[C@@H]1C[C@@H](NC(=O)Nc2cccc3ccccc23)CN1C(=O)[C@@H](NC(=O)OC(C)(C)C)C(C)(C)C)C(=O)NS(=O)(=O)C1CC1 (stereo partly drawn) [Compound 43] | – | – | > 15 | < 0.15
C=CC1CC1(NC(=O)[C@@H]1C[C@@H](NC(=O)c2cccc3cccnc23)CN1C(=O)[C@@H](NC(=O)CC1CC1)C(C)(C)C)C(=O)NS(=O)(=O)C1CC1 (stereo partly drawn) [Compound 31] | – | < 0.15 | 0.15 to 15 | –
C=CC1CC1(NC(=O)[C@@H]1C[C@@H](NC(=O)c2sc3ccccc3c2Cl)CN1C(=O)[C@@H](NC(=O)CC1CC1)C(C)(C)C)C(=O)NS(=O)(=O)C1CC1 (single isomer, unassigned) [Compound 4] | 0.15 to 15 | < 0.15 | – | –
C=CC1CC1(NC(=O)[C@@H]1C[C@@H](NC(=O)c2cc(Cl)nc3ccccc23)CN1C(=O)[C@@H](NC(=O)CC1CC1)C(C)(C)C)C(=O)NS(=O)(=O)C1CC1 (stereo partly drawn) [Compound 13] | – | 0.15 to 15 | > 15 | –
C=CC1CC1(NC(=O)[C@@H]1C[C@@H](NC(=O)c2c(-c3ccc(Cl)cc3)cn3ccccc23)CN1C(=O)[C@@H](NC(=O)CC1CC1)C(C)(C)C)C(=O)NS(=O)(=O)C1CC1 (stereo partly drawn) [Compound 21] | – | < 0.15 | 0.15 to 15 | –
C=CC1CC1(NC(=O)[C@@H]1C[C@@H](NC(=O)c2sc3ccccc3c2Cl)CN1C(=O)[C@@H](NC(=O)CC1CC1)C(C)(C)C)C(=O)NS(=O)(=O)C1CC1 (single isomer, unassigned) [Compound 3] | – | < 0.15 | 0.15 to 15 | –
C=CC1CC1(NC(=O)C1CC(NC(=O)c2ccc3ccccc3[n+]2[O-])CN1C(=O)C(NC(=O)CC1CC1)C(C)(C)C)C(=O)NS(=O)(=O)C1CC1 (stereo not drawn) [Compound 34] | – | – | 0.15 to 15 | < 0.15
